This passage reports AC50 results from ChEMBL document CHEMBL5291721, “A preclinical secondary pharmacology resource illuminates target-adverse drug reaction associations of marketed drugs” (Nat Commun, 2023).

Some targets named below: Melanocortin receptor 4 (Homo sapiens, UniProt P32245); Mu-type opioid receptor (Homo sapiens, UniProt P35372); Histamine H1 receptor (Homo sapiens, UniProt P35367).
Test [1] concerns the target T1, Alpha-2A adrenergic receptor (Homo sapiens, UniProt P08913).
T1 sequence (P08913 whole entry): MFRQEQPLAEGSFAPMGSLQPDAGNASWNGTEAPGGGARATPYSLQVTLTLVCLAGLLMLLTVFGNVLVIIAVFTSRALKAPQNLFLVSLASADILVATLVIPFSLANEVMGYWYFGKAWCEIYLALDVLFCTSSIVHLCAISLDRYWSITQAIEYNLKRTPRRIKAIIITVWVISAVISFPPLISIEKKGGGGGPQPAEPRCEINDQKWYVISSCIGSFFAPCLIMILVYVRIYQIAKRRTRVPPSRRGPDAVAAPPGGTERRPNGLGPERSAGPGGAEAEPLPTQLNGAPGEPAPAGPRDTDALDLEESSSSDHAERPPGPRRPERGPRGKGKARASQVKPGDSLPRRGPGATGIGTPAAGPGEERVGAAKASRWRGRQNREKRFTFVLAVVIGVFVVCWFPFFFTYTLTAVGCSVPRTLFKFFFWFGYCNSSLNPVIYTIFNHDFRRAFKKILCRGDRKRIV
Type of test: functional, cell-based.

The target of the next test is T2, Adenosine receptor A1 (Homo sapiens, UniProt P30542).
T2 sequence (P30542 whole entry): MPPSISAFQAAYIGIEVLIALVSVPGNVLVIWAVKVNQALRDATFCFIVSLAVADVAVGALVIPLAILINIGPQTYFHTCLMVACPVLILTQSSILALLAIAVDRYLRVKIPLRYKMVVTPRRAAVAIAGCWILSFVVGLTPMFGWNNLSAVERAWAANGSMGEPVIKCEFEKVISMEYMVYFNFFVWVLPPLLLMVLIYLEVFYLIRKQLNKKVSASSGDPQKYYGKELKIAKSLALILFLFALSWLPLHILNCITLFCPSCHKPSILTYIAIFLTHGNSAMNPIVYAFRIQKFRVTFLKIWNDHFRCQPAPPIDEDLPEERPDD

Test [2] deals with Muscarinic acetylcholine receptor M3 (Homo sapiens, UniProt P20309).
In test [3] the target is T3, 5-hydroxytryptamine receptor 1A (Homo sapiens, UniProt P08908).
T3 sequence (P08908 whole entry): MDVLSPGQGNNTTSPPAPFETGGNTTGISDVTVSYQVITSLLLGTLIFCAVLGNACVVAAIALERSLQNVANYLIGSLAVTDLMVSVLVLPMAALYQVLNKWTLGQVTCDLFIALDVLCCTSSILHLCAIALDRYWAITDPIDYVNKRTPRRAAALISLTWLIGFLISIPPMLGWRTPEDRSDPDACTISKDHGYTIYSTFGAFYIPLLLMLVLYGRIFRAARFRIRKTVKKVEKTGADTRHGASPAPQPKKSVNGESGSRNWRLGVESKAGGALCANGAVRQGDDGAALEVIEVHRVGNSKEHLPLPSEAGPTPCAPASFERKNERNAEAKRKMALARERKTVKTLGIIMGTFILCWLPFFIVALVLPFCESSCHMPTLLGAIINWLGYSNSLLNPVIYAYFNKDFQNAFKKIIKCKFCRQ
Type of test: functional, cell-based.

The target of the next test is T4, B2 bradykinin receptor (Homo sapiens, UniProt P30411).
T4 sequence (P30411 whole entry): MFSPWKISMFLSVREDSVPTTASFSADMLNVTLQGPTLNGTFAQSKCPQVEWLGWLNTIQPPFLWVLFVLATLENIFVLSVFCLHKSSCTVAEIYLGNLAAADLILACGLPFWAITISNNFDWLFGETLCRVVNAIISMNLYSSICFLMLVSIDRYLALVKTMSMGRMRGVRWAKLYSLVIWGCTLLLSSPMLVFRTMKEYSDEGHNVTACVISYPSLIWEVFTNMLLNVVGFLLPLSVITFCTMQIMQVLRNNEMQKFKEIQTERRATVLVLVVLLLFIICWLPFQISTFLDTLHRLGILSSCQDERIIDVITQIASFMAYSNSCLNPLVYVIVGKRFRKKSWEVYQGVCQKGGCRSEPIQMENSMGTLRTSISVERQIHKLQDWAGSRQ

Test [4] has as its target 5-hydroxytryptamine receptor 2B (Homo sapiens, UniProt P41595). The class given is functional, cell-based.
In test [5] the target is T5, Alpha-1A adrenergic receptor (Homo sapiens, UniProt P35348).
T5 sequence (P35348 whole entry): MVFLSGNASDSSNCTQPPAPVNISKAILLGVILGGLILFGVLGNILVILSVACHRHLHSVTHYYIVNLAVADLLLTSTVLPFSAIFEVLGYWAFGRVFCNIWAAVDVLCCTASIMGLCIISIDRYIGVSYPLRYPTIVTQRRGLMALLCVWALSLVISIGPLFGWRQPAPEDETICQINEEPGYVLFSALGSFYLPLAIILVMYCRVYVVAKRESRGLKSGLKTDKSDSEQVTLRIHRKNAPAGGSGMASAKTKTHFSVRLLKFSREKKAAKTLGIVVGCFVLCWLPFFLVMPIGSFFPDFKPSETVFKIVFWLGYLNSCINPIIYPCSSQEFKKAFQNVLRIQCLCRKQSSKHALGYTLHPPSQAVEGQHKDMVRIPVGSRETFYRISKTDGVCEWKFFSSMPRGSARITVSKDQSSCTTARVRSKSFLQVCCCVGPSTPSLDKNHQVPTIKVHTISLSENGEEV
The class given is functional, cell-based.

Test [6] deals with 5-hydroxytryptamine receptor 2A (Homo sapiens, UniProt P28223). Type of test: functional, cell-based.
Test [7] has as its target T6, Gastrin/cholecystokinin type B receptor (Homo sapiens, UniProt P32239).
T6 sequence (P32239 whole entry): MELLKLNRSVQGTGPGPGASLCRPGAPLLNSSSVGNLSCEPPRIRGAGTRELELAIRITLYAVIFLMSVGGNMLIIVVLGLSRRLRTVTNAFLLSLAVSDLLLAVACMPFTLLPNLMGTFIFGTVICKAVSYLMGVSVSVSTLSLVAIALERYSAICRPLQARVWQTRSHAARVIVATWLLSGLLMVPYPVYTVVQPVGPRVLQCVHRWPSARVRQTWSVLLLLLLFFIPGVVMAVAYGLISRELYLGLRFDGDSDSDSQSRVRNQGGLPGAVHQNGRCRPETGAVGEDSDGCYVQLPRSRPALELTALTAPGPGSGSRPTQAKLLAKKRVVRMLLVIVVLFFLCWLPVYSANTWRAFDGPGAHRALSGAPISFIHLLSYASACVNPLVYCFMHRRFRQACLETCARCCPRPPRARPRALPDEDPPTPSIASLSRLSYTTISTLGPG
Note: assay procedure not described here.

Chain of 5-hydroxytryptamine receptor 2A (P28223 whole entry): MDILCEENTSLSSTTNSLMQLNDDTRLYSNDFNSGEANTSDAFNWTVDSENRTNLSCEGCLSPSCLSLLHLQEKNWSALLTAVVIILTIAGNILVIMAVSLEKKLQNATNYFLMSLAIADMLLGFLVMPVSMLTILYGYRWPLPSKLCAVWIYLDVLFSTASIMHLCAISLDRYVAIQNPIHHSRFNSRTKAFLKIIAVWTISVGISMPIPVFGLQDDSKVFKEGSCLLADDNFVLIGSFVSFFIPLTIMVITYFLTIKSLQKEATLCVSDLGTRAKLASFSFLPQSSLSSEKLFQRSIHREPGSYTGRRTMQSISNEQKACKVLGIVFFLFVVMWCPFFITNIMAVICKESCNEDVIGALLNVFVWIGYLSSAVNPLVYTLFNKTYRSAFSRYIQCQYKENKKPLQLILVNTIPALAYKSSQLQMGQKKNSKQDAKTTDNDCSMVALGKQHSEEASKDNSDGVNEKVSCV
Chain of Melanocortin receptor 4 (P32245 whole entry): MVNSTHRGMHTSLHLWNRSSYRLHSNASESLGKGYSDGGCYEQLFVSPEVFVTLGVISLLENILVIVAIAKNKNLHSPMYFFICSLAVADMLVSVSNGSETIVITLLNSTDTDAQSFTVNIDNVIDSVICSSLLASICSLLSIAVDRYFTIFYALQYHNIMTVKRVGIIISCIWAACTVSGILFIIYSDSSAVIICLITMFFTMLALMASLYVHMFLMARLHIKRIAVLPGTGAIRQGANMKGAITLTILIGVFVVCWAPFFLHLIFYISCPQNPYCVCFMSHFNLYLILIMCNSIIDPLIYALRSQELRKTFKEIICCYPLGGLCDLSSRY
Chain of 5-hydroxytryptamine receptor 2B (P41595 whole entry): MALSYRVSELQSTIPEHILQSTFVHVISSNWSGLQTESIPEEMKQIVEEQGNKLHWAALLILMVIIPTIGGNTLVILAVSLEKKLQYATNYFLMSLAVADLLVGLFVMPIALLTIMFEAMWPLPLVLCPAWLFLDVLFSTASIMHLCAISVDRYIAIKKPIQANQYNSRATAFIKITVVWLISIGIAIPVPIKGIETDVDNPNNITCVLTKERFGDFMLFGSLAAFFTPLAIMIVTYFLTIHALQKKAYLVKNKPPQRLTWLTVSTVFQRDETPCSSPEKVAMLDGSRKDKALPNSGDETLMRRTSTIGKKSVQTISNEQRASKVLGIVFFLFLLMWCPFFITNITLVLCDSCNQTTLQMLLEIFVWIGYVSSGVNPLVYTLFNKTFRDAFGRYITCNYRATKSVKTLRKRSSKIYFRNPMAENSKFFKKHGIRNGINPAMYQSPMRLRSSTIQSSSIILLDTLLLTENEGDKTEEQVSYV
Chain of Mu-type opioid receptor (P35372 whole entry): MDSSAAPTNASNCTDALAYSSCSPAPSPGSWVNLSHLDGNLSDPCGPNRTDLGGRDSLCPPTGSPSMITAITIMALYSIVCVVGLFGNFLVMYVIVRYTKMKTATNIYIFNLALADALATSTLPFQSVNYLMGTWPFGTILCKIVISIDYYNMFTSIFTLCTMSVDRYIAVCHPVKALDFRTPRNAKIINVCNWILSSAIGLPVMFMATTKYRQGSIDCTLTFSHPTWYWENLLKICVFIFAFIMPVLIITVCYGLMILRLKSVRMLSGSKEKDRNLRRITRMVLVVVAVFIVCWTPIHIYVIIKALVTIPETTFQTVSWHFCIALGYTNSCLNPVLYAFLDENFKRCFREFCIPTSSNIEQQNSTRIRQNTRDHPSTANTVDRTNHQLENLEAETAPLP
Chain of Histamine H1 receptor (P35367 whole entry): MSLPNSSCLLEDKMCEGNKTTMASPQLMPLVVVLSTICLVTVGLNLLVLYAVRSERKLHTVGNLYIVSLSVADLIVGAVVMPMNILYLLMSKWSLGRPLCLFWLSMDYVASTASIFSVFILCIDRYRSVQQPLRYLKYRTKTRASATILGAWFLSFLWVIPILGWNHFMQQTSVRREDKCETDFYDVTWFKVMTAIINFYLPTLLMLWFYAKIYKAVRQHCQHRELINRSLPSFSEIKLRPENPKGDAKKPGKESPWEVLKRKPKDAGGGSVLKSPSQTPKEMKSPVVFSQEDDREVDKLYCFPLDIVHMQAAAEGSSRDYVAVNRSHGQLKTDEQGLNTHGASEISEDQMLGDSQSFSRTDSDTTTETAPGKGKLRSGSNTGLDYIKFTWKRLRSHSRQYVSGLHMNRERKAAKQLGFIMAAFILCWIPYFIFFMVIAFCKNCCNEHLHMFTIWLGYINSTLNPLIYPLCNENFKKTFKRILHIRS
Chain of Muscarinic acetylcholine receptor M3 (P20309 whole entry): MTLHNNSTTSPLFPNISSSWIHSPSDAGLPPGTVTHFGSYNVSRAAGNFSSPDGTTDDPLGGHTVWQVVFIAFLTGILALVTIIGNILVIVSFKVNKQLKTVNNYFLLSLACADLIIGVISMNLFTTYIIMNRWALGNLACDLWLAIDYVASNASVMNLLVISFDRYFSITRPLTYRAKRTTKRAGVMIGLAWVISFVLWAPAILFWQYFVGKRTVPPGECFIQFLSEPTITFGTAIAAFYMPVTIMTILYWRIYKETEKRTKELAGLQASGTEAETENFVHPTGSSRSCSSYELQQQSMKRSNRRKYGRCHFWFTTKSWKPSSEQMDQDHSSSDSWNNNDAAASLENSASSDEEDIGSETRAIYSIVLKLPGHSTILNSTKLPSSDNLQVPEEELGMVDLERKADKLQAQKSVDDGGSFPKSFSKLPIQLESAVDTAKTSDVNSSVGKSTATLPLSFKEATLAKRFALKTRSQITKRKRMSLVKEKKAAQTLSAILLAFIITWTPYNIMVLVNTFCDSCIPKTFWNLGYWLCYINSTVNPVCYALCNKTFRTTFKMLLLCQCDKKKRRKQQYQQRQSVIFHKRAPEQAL

As to `CCC1(C2=CCCCCC2)C(=O)NC(=O)NC1=O` [HEPTABARBITAL], the AC50 (as a rule, the concentration giving half of the maximal activity seen) in test [1] is over 10 µM; on Melanocortin receptor 4 it was over 10 µM; at Mu-type opioid receptor it was over 30 µM; at Adenosine receptor A1, over 10 µM; in test [2], over 30 µM; in test [3], over 10 µM. Further, the AC50 at B2 bradykinin receptor was over 10 µM; in test [4] it was over 10 µM; in test [5] it was over 30 µM; in [6], over 10 µM; on Histamine H1 receptor, over 10 µM.

For `CC(=O)OCC(=O)[C@@]12OC3(CCCC3)O[C@@H]1C[C@H]1[C@@H]3CCC4=CC(=O)C=C[C@]4(C)[C@@]3(F)[C@@H](O)C[C@@]12C` [AMCINONIDE], the AC50 in test [1] was over 10 µM; at Melanocortin receptor 4, over 10 µM; on Mu-type opioid receptor it was over 30 µM; on Adenosine receptor A1 it was over 10 µM; in test [2] it was over 30 µM; in [3], over 10 µM. Moreover, the AC50 (at B2 bradykinin receptor; in test [4]; in test [6]; at Histamine H1 receptor) was over 10 µM each time.

As to `CN1CCC2=C(C1)C(c1ccccc1)c1ccccc12` (configuration not stated) [PHENINDAMINE], the AC50 in [1] was over 10 µM; at Melanocortin receptor 4, over 10 µM; on Mu-type opioid receptor, over 30 µM; at Adenosine receptor A1, over 10 µM; in test [2] it was over 30 µM; in test [3], over 10 µM. Further, the AC50 at B2 bradykinin receptor was over 10 µM; in test [4] it was over 10 µM; in test [6], over 10 µM; on Histamine H1 receptor it was 8.1 µM.

In the case of `C#CC1(OC(N)=O)CCCCC1` [ETHINAMATE], the AC50 in test [1] is over 10 µM; at Melanocortin receptor 4, over 10 µM; on Mu-type opioid receptor it was over 30 µM; on Adenosine receptor A1, over 10 µM; in test [2] it was over 30 µM; in [3], over 10 µM. The AC50 (on B2 bradykinin receptor; in test [4]; in test [6]; on Histamine H1 receptor) was over 10 µM each time.

For `CN1C(=O)CC(=O)N(c2ccccc2)c2cc(Cl)ccc21` [CLOBAZAM], the half-maximal activity concentration (AC50) was over 10 µM in test [1]; over 10 µM on Melanocortin receptor 4; over 30 µM at Mu-type opioid receptor; over 10 µM on Adenosine receptor A1; over 30 µM in test [2]; over 10 µM in [3]. For the same compound, the AC50 (at B2 bradykinin receptor; in test [4]; in [6]; at Histamine H1 receptor) was over 10 µM in each case.

Take `CC1=CC(=O)c2ccccc2C1=O` [MENADIONE]: the AC50 in test [1] is over 10 µM; at Melanocortin receptor 4 it was over 10 µM; on Mu-type opioid receptor, over 30 µM; on Adenosine receptor A1, over 30 µM; in test [2], over 30 µM; in test [3], over 10 µM. For the same compound, the AC50 is over 10 µM at B2 bradykinin receptor, over 10 µM in test [4], over 10 µM in [6] and over 30 µM at Histamine H1 receptor.

`CC(=O)NS(=O)(=O)c1ccc(N)cc1` [SULFACETAMIDE]: the half-maximal activity concentration (AC50) was over 10 µM in test [1]; over 10 µM at Melanocortin receptor 4; over 30 µM at Mu-type opioid receptor; over 10 µM on Adenosine receptor A1; over 30 µM in test [2]; over 10 µM in [3]. Further, the AC50 (at B2 bradykinin receptor; in test [4]; in [6]; on Histamine H1 receptor) was over 10 µM in each case.

Regarding `CN1C(=O)CC(c2ccccc2)C1=O` (configuration not stated) [PHENSUXIMIDE], the half-maximal activity concentration (AC50) in [1] was over 10 µM; at Melanocortin receptor 4, over 10 µM; at Mu-type opioid receptor, over 30 µM; at Adenosine receptor A1, over 10 µM; in test [2], over 30 µM; in test [3], over 10 µM. The concentration at half-maximal activity (AC50) (on B2 bradykinin receptor; in test [4]; in [6]; at Histamine H1 receptor) was over 10 µM in each case.

On to `COc1ccc2cccc(CCNC(C)=O)c2c1` [AGOMELATINE], for which the AC50 in [1] is over 30 µM; at Melanocortin receptor 4 it was over 30 µM; at Mu-type opioid receptor it was over 30 µM; at Adenosine receptor A1, over 30 µM; in test [2], over 10 µM; in test [3], over 30 µM. For the same compound, the AC50 is over 30 µM in test [7]; over 30 µM on B2 bradykinin receptor; 2.07 µM in test [4]; over 30 µM in [5]; over 10 µM at Histamine H1 receptor.

Turning to `CN1CCCN=C1COC(=O)C(O)(c1ccccc1)C1CCCCC1` (configuration not stated) [OXYPHENCYCLIMINE], the AC50 was over 10 µM in test [1]; over 10 µM at Melanocortin receptor 4; over 30 µM on Mu-type opioid receptor; over 10 µM on Adenosine receptor A1; over 30 µM in [2]; over 10 µM in test [3]. In addition, the AC50 is over 10 µM on B2 bradykinin receptor, over 10 µM in test [4], over 10 µM in test [6] and 0.99 µM on Histamine H1 receptor.

For the compound `O=C(CCCCC(=O)Nc1c(I)cc(I)c(C(=O)O)c1I)Nc1c(I)cc(I)c(C(=O)O)c1I` [IODIPAMIDE], the AC50 in [1] is over 10 µM; at Melanocortin receptor 4, over 10 µM; at Mu-type opioid receptor, over 30 µM; at Adenosine receptor A1 it was over 10 µM; in test [2], over 30 µM; in test [3], over 10 µM. Further, the AC50 (at B2 bradykinin receptor; in test [4]; in test [6]; at Histamine H1 receptor) was over 10 µM in each case.

As to `CC(C)[N+](C)(CCC(C(N)=O)(c1ccccc1)c1ccccc1)C(C)C` [ISOPROPAMIDE], the AC50 in test [1] was over 10 µM; on Melanocortin receptor 4, over 10 µM; at Mu-type opioid receptor, over 30 µM; at Adenosine receptor A1 it was over 10 µM; in test [2], 0.0056 µM; in test [3], over 10 µM. Moreover, the half-maximal activity concentration (AC50) (on B2 bradykinin receptor; in test [4]; in test [6]; on Histamine H1 receptor) was over 10 µM throughout.
